The source made the active and inactive calls.
What was measured:
Assay type in all cases: functional, organism-based
Conditions in all cases: time 30.0 day
Rattus norvegicus [1] = experiment: Cardioprotective activity in Sprague-Dawley rat model of LAD coronary artery ligation-induced cardiac fibrosis assessed as increase in organized myocardial cells at 10 mg/kg, po administered via gavage for 30 days by H and E staining based optical microscopic method
Rattus norvegicus [2] = experiment: Cardioprotective activity in Sprague-Dawley rat model of LAD coronary artery ligation-induced cardiac fibrosis assessed as decrease in myocardial necrotic area at 10 mg/kg, po administered via gavage for 30 days
Rattus norvegicus [3] = experiment: Cardioprotective activity in Sprague-Dawley rat model of LAD coronary artery ligation-induced cardiac fibrosis assessed as decrease in heart weight ratio at 10 mg/kg, po administered via gavage for 30 days
Rattus norvegicus [4] = experiment: Cardioprotective activity in Sprague-Dawley rat model of LAD coronary artery ligation-induced cardiac fibrosis assessed as increase in left ventricular function by measuring reduction in LAD-induced anterior wall weakened at 10 mg/kg, po administered via gavage for 30 days by echocardiography
Rattus norvegicus [5] = experiment: Cardioprotective activity in Sprague-Dawley rat model of LAD coronary artery ligation-induced cardiac fibrosis assessed as increase in ejection fraction at 10 mg/kg, po administered via gavage for 30 days by echocardiography
Rattus norvegicus [6] = experiment: Cardioprotective activity in Sprague-Dawley rat model of LAD coronary artery ligation-induced cardiac fibrosis assessed as increase in fractional shortening at 10 mg/kg, po administered via gavage for 30 days by echocardiography
Rattus norvegicus [7] = experiment: Cardioprotective activity in Sprague-Dawley rat model of LAD coronary artery ligation-induced cardiac fibrosis assessed as reduction in infarct survival area of myocardial cells at 10 mg/kg, po administered via gavage for 30 days by H and E staining based optical microscopic method
Rattus norvegicus [8] = experiment: Cardioprotective activity in Sprague-Dawley rat model of LAD coronary artery ligation-induced cardiac fibrosis assessed as decrease in collagen in heart at 10 mg/kg, po administered via gavage for 30 days by Masson trichrome staining based microscopic method
Rattus norvegicus [9] = experiment: Cardioprotective activity in Sprague-Dawley rat model of LAD coronary artery ligation-induced cardiac fibrosis assessed as decrease in collagen volume fraction at 10 mg/kg, po administered via gavage for 30 days by Masson trichrome staining based microscopic method
Rattus norvegicus [10] = experiment: Cardioprotective activity in Sprague-Dawley rat model of LAD coronary artery ligation-induced cardiac fibrosis assessed as decrease in Col3a1 mRNA expression at 10 mg/kg, po administered via gavage for 30 days by RT2 Profiler PCR Array
Rattus norvegicus [11] = experiment: Cardioprotective activity in Sprague-Dawley rat model of LAD coronary artery ligation-induced cardiac fibrosis assessed as decrease in CTGF mRNA expression at 10 mg/kg, po administered via gavage for 30 days by RT2 Profiler PCR Array
Rattus norvegicus [12] = experiment: Cardioprotective activity in Sprague-Dawley rat model of LAD coronary artery ligation-induced cardiac fibrosis assessed as decrease in Lox mRNA expression at 10 mg/kg, po administered via gavage for 30 days by RT2 Profiler PCR Array
Rattus norvegicus [13] = experiment: Cardioprotective activity in Sprague-Dawley rat model of LAD coronary artery ligation-induced cardiac fibrosis assessed as decrease in myocardial necrotic area at 2.86 mg/kg, po administered via gavage for 30 days
Rattus norvegicus [14] = experiment: Cardioprotective activity in Sprague-Dawley rat model of LAD coronary artery ligation-induced cardiac fibrosis assessed as decrease in heart weight ratio at 2.86 mg/kg, po administered via gavage for 30 days
Rattus norvegicus [15] = experiment: Cardioprotective activity in Sprague-Dawley rat model of LAD coronary artery ligation-induced cardiac fibrosis assessed as increase in left ventricular function by measuring reduction in LAD-induced anterior wall weakened at 2.86 mg/kg, po administered via gavage for 30 days by echocardiography
Rattus norvegicus [16] = experiment: Cardioprotective activity in Sprague-Dawley rat model of LAD coronary artery ligation-induced cardiac fibrosis assessed as increase in ejection fraction at 2.86 mg/kg, po administered via gavage for 30 days by echocardiography
Rattus norvegicus [17] = experiment: Cardioprotective activity in Sprague-Dawley rat model of LAD coronary artery ligation-induced cardiac fibrosis assessed as increase in fractional shortening at 2.86 mg/kg, po administered via gavage for 30 days by echocardiography
Rattus norvegicus [18] = experiment: Cardioprotective activity in Sprague-Dawley rat model of LAD coronary artery ligation-induced cardiac fibrosis assessed as increase in organized myocardial cells at 2.86 mg/kg, po administered via gavage for 30 days by H and E staining based optical microscopic method
Rattus norvegicus [19] = experiment: Cardioprotective activity in Sprague-Dawley rat model of LAD coronary artery ligation-induced cardiac fibrosis assessed as reduction in infarct survival area of myocardial cells at 2.86 mg/kg, po administered via gavage for 30 days by H and E staining based optical microscopic method
Rattus norvegicus [20] = experiment: Cardioprotective activity in Sprague-Dawley rat model of LAD coronary artery ligation-induced cardiac fibrosis assessed as decrease in collagen in heart at 2.86 mg/kg, po administered via gavage for 30 days by Masson trichrome staining based microscopic method
Rattus norvegicus [21] = experiment: Cardioprotective activity in Sprague-Dawley rat model of LAD coronary artery ligation-induced cardiac fibrosis assessed as decrease in collagen volume fraction at 2.86 mg/kg, po administered via gavage for 30 days by Masson trichrome staining based microscopic method

Measured: Activity

COc1cc2c(c(OC)c1OC)-c1c(cc3c(c1OC)OCO3)C[C@H](C)[C@](C)(O)[C@H]2OC(=O)c1ccccc1
not listed: Rattus norvegicus [13] | Rattus norvegicus [14] | Rattus norvegicus [15] | Rattus norvegicus [16] | Rattus norvegicus [17] | Rattus norvegicus [18] | Rattus norvegicus [19] | Rattus norvegicus [20] | Rattus norvegicus [21]
active: all other assays above

CCOC(=O)[C@H](CCc1ccccc1)N[C@@H](C)C(=O)N1CCC[C@H]1C(=O)O
active: Rattus norvegicus [13] | Rattus norvegicus [14] | Rattus norvegicus [15] | Rattus norvegicus [16] | Rattus norvegicus [17] | Rattus norvegicus [18] | Rattus norvegicus [19] | Rattus norvegicus [20] | Rattus norvegicus [21]

Reference: ChEMBL document CHEMBL4699536, “Discovery of Natural Compounds for Cardiac Fibrosis by a Transcriptome-Based Functional Gene Module Reference Approach” (J Nat Prod, 2020)
